Results on 6 compounds are retold here after article PMC4627656, “Combining Metabolite-Based Pharmacophores with Bayesian Machine Learning Models for Mycobacterium tuberculosis Drug Discovery” (PLoS ONE, 2015).

Data set [1] relates to Mtb H37Rv strain. In words: Resazurin (Alamar Blue) MIC assay against replicating Mtb. The data set is classed as cell-based, Mycobacterium tuberculosis. As to conditions: lowest concentration inhibiting ≥90% growth, initial hits, quinoxaline di-N-oxides, positive controls; for MIC: Mycobacterium tuberculosis, H37RV.
In data set [2] the test system is Mtb. Set-up: method as in PMID 18502817. As to conditions: cited from earlier work.
The nature of data set [3]: in vitro. As to conditions: African green monkey.
The subject of data set [4] is mammalian cell. As to conditions: cited from earlier work.
The conditions of data set [5]: mouse, microsomes, pH 7.4. Here is the method: The test agent was incubated in duplicate with mouse liver microsomes at 37°C. The reaction contained microsomal protein in 100 mM K3PO4, 2 mM NADPH, and 3 mM MgCl2 at pH 7.4. A control was run for each test agent omitting NADPH to detect NADPH-free degradation. At t = 0 and 60 min, an aliquot was removed from each experimental and control reaction and mixed with an equal volume of ice-cold Stop Solution (methanol containing propranolol as an internal standard). Stopped reactions were incubated at least ten min at -20°C, and an additional volume of water was added. The samples were centrifuged to remove precipitated protein, and the supernatants were analyzed by LC/MS/MS to quantitate the remaining parent. Data were reported as % remaining by dividing by the time zero concentration value.

Data set [6] can be described thus: physchem. The data set is classed as physicochemical. As to conditions: 37 °C, pH 7.4, aqueous buffer, kinetic from dmso stock. The method, then: Serial dilutions of the test agent were prepared in DMSO at 100x the final concentration. Test article solutions were diluted 100-fold into pH 7.4 phosphate-buffer saline (PBS) in a 96-well plate and mixed. After 2 h at 37°C, the presence of precipitate was detected by turbidity (absorbance at 540 nm). An absorbance value of greater than ‘mean + 3x standard deviation of the blank’ (after subtracting the background) was indicative of turbidity. For brightly colored compounds, a visual inspection of the plate was performed to verify the solubility limit determined by UV absorbance. The solubility limit was reported as the highest experimental concentration with no evidence of turbidity.

The test system of data set [7] is clinical strain 692. The data set is described as follows: AlamarBlue MIC (absorbance), strain panel: 692. The data set is classed as cell-based. As to conditions: Mycobacterium tuberculosis, pan-susceptible. (Alamar Blue is a resazurin reagent that responds to reducing activity.)
Data set [8] relates to Mtb (H37Rv).
Data set [9] can be described thus: in vitro. As to conditions: human, Caco-2.
Data set [10] in a line: Caco-2 cell permeability. As to conditions: human.
[11] abbreviates: in vitro cultured Mtb H37Rv, read-out: Mtb MIC (H37Rv).
The mark [12] stands for this setting: 3.2 μg/mL (1.3X MIC), 6 h, vs DMSO.
[13] abbreviates: read-out: Mtb MIC (H37Rv), in vitro cultured Mtb H37Rv.

In brackets after ≈: the same amount, converted by molar mass. Where two headings read alike, the source gives them in different places. A value given as a limit tells only on which side of the number the result lay.

Consider `CC(=O)c1c(C)[n+]([O-])c2ccccc2[n+]1[O-]` [SRI1, 1-(3-methyl-1,4-dioxy-quinoxalin-2-yl)-ethanone], for which the MIC in data set [1] (setting [11]) turned out to be 2.5 µg/mL (≈ 11.5 µM). Besides, in [2], the MIC previously identified is 3.13 µg/mL (≈ 14.3 µM). For the same compound, the CC50 at 72 h in data set [3] was greater than 40 µg/mL. Besides, in [4], the “Mammalian cell cytotoxicity previously reported” value is “no appreciable mammalian cell cytotoxicity”.

Consider `CCCCC(=O)c1c(C)[n+]([O-])c2ccc([N+](=O)[O-])cc2[n+]1[O-]` [SRI50], for which, in data set [1] (setting [11]), the MIC is 0.32 µg/mL (≈ 1.05 µM). Further, in data set [5], the “% Compound remaining after 1h in the absence of NADPH” value is 77.5% and the “% Compound remaining after 1h in the presence of NADPH” value was determined as 0.06%. The same compound yielded a solubility (kinetic) at 2 h in [6] of 125 µM (≈ 38.2 µg/mL). The compound further registered an MIC in data set [7] of 0.16 µg/mL (≈ 0.524 µM). Also, the CC50 at 72 h in [3] came to 3.4 µg/mL (≈ 11.1 µM).

Regarding `CCCCC(=O)c1c(C)[n+]([O-])c2cc(Cl)c(Cl)cc2[n+]1[O-]` [SRI54], the minimal inhibitory concentration (MIC) in [1] (setting [11]) came out at 2.5 µg/mL (≈ 7.59 µM). In data set [5], the “% Compound remaining after 1h in the absence of NADPH” value came out at 79.1% and the “% Compound remaining after 1h in the presence of NADPH” value is recorded as 0%. The same compound gave a kinetic solubility at 2 h in data set [6] of 15.6 µM (≈ 5.14 µg/mL). In addition, in data set [8] (setting [12]), the “Genes down-regulated at minimum twofold versus control” value worked out at 184 genes and the “Genes up-regulated at least twofold versus control” value came out at 131 genes. In data set [8] (3.2 μg/mL, 6 h), the “DNA repair genes down-regulated at least twofold” value was 2/59; the “DNA repair genes up-regulated at least twofold” value is given as 12/59; the “Methylcitrate cycle genes (prpC, prpD, icl1) induced more than fourfold versus control” value is 3/13. Further, the “Avg. fold induction over four replicates, hypothetical protein ORF01494” value in [8] (ORF01494, treated vs DMSO) stood at 11.22. The “Avg. fold induction over four replicates, Rv0560c” value in data set [8] (gene Rv0560c, treated vs DMSO) is recorded as 38.01. The “Avg. fold induction over four replicates, Rv1130” value in [8] (gene Rv1130, treated vs DMSO) amounted to 8.92. Also, the “Avg. fold induction over four replicates, Rv3074” value in data set [8] (gene Rv3074, treated vs DMSO) is 8.59. Moreover, the “Avg. fold induction over four replicates, gltA1” value in [8] (gene gltA1 (Rv1131), treated vs DMSO) is recorded as 15.16. Also, in data set [8] (top 100 most up- and down-regulated genes vs deposited Mtb transcriptional data), the “Hierarchical clustering of transcriptional response” value is “clustered most closely to the fatty acid biosynthesis inhibitor CD117”. The compound also gave a CC50 at 72 h in [3] of 15 µg/mL (≈ 45.6 µM). Moreover, in [9], the apparent permeability from apical to basolateral (Papp A→B) at 2 h, 10 μM came out at 0.66 ×10⁻⁶ cm/s and the Papp B→A at 2 h, 10 μM is 0.1 ×10⁻⁶ cm/s. In addition, the efflux ratio at 2 h, 10 μM in data set [10] turned out to be 0.15.

Regarding `CC(C)=CCC/C(C)=C/CCC(=O)c1c(C)[n+]([O-])c2cc(Cl)c(Cl)cc2[n+]1[O-]` [SRI56], the minimal inhibitory concentration (MIC) in [1] (setting [11]) came out at 2.5 µg/mL (≈ 5.91 µM). The same compound had a CC50 at 72 h in data set [3] of 4.5 µg/mL (≈ 10.6 µM).

For `CC(C)=CCCC(=O)c1c(C)[n+]([O-])c2cc(Cl)c(Cl)cc2[n+]1[O-]` [SRI57], the minimal inhibitory concentration (MIC) in data set [1] (setting [13]) came out at 1.2 µg/mL (≈ 3.38 µM). The “Mtb MIC (H37Rv)” value in data set [1] (in vitro cultured Mtb H37Rv) amounted to 1.25 µg/mL. In [3], this compound registered a CC50 at 72 h greater than 40 µg/mL.

As to `Cc1c(C(=O)C2CC2)[n+]([O-])c2cc(Cl)c(Cl)cc2[n+]1[O-]` [SRI58], in data set [1] (setting [13]), the minimum inhibitory concentration (MIC) is 1.2 µg/mL (≈ 3.83 µM). In addition, the “Mtb MIC (H37Rv)” value in [1] (in vitro cultured Mtb H37Rv) is 1.25 µg/mL. In addition, in data set [5], the “% Compound remaining after 1h in the absence of NADPH” value was 110% and the “% Compound remaining after 1h in the presence of NADPH” value was determined as 63.6%. Further, the kinetic solubility at 2 h in data set [6] amounted to 125 µM (≈ 39.1 µg/mL). Also, the CC50 at 72 h in data set [3] was greater than 40 µg/mL. In data set [9], the Papp A→B at 2 h, 10 μM was found to be 2.3 ×10⁻⁶ cm/s; the basolateral-to-apical permeability (Papp B→A) at 2 h, 10 μM is 0.57 ×10⁻⁶ cm/s; the efflux ratio at 2 h, 10 μM was found to be 0.25.

As a reminder, the MIC is the lowest concentration found to suppress growth. As a reminder, the solubility (kinetic) is the concentration staying in solution when a stock, usually in DMSO, is diluted into the medium. In general, Papp A→B refers to the apparent permeability from the apical to the basolateral side of a cell layer. By Papp B→A is commonly meant how fast a substance crosses the layer from the basolateral side. In general, efflux ratio refers to a quotient of directional permeabilities that is used to spot active efflux.
